Results: US7973075B2, “Kainate receptor-selective epimeric analogs of dysiherbaine” (priority 2007, dated 2011)
Read-outs that look alike come from different tables or passages of the source.

How the values were obtained:
GluR5 [1] = biological target: T1, GluR5 (Rattus norvegicus, UniProt P22756); test: Radioligand displacement ([3H]kainate), Example 1; type: binding
T1 construct: expressed in transfected cells; HEK 293 (patch clamp)
Description: (§1) Dysiherbaine (DH) was used as a template for generating novel KAR ligands. (See FIG. 1.) These included 8-deoxy and 9-deoxy analogs of neodysiherbaine (neoDH). (See FIG. 2.) The binding of these analogs to glutamate receptors was assessed by radioligand binding as follows. Membrane preparations from COS-7 or HEK-T/17 cells were isolated 2-3 days after transfection. Displacement assays were performed as described previously (Swanson et al., NEURON 1997; 19:913-26). Unlabeled marine toxin analogs were used to displace [^3H]kainate or [^3H]AMPA (PerkinElmer) from kainate and AMPA receptors, respectively. (See FIG. 2 and Table 1.)
(§2) Non-specific binding was defined in the presence of 1 mM glutamate. The effect of these analogs on electrophysiology was assessed as follows. HEK 293 cells were transfected with receptor cDNAs in combination with eGFP cDNA. Patch-clamp recordings from transfected cells were made 24-72 hours later using a fast application system described previously (Swanson et al., NEURON 1997; 19:913-26). (See FIG. 3.)
(§3) Additional epimer analogs were generated. These included 4-epi-neodysiherbaine, 8-epi-neodysiherbaine, 9-epi-neodysiherbaine, and 8,9-epi-neodysiherbaine. (See FIG. 4.) The binding of these analogs to glutamate receptors was assessed by radioligand binding as described above. (See FIG. 4 and Table 2.)

GluR6 = biological target: T2, GluR6 (Rattus norvegicus, UniProt P42260); test: Radioligand displacement ([3H]kainate), Example 1; type: binding
T2 construct: expressed in transfected cells; HEK 293 (patch clamp)
Description: as §1, §2, §3

GluR7 = biological target: T3, GluR7 (Rattus norvegicus, UniProt P42264); test: Radioligand displacement ([3H]kainate), Example 1; type: binding
T3 construct: expressed in transfected cells; host or cells: COS-7 or HEK-T/17
Description: as §1, §2, §3

KA2 = biological target: T4, KA2 (Rattus norvegicus, UniProt Q63273); test: Radioligand displacement ([3H]kainate), Example 1; type: binding
T4 construct: expressed in transfected cells; host or cells: HEK-293-T/17
T4 sequence (Q63273 15-979): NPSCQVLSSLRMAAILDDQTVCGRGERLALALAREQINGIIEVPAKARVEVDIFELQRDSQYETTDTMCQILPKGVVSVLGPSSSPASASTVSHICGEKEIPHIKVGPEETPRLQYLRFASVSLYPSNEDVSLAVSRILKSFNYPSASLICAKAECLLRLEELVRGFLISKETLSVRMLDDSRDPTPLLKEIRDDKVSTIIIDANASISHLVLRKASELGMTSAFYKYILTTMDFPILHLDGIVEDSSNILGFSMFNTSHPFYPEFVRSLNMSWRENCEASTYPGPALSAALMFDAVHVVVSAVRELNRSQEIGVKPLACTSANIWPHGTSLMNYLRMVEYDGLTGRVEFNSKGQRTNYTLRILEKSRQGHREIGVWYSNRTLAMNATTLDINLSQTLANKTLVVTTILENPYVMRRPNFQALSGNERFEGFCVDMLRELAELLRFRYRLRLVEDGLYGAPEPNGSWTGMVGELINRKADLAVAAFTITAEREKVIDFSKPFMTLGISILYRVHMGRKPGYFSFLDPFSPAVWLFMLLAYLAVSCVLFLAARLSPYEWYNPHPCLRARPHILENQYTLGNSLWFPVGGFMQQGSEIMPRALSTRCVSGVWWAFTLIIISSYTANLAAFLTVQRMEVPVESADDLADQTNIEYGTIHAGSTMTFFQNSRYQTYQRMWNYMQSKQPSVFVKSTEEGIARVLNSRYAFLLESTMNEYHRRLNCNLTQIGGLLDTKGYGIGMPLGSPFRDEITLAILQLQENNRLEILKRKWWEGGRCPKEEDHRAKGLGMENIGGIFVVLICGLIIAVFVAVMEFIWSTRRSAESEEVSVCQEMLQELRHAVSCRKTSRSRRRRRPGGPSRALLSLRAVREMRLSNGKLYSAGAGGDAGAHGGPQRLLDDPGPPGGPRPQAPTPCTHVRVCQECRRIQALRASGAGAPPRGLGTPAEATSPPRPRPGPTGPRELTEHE
Description: as §1, §2, §3

GluR5 [2] = biological target: T1, GluR5; test: Patch-clamp recordings from transfected HEK 293 cells, Example 1; type: cell-based; conditions: Example 1, FIG. 3 and 5
Description: as §2
The effect of these analogs on electrophysiology also was assessed as described above. […] The results further indicate that the C8 and C9 substituents are necessary for binding to all AMPA and KAR subunits except for GluR5 subunits. The C9 polar group must be present and in the correct spatial orientation for high-affinity GluR5 subunit binding. Inter-domain contacts mediated by residue 721S are critical determinants of binding affinity. The epimer analog 9-deoxy-neoDH mimics the binding affinity of the di-deoxy analog MSVIII-19, but acts as an agonist rather than an antagonist.

mice = test: Seizure (convulsant) activity after i.c.v. injection; type: in vivo
[3] = Tables 1-2, membranes of transfected COS-7 or HEK-T/17 cells, read-out: GluR5 binding affinity (displacement of [3H]kainate)
[4] = Tables 1-2, read-out: GluR6 binding affinity (displacement of [3H]kainate)
[5] = Tables 1-2, read-out: GluR7 binding affinity (displacement of [3H]kainate)
[6] = Tables 1-2, read-out: KA2 binding affinity (displacement of [3H]kainate)

T2 sequence (P42260 32-908): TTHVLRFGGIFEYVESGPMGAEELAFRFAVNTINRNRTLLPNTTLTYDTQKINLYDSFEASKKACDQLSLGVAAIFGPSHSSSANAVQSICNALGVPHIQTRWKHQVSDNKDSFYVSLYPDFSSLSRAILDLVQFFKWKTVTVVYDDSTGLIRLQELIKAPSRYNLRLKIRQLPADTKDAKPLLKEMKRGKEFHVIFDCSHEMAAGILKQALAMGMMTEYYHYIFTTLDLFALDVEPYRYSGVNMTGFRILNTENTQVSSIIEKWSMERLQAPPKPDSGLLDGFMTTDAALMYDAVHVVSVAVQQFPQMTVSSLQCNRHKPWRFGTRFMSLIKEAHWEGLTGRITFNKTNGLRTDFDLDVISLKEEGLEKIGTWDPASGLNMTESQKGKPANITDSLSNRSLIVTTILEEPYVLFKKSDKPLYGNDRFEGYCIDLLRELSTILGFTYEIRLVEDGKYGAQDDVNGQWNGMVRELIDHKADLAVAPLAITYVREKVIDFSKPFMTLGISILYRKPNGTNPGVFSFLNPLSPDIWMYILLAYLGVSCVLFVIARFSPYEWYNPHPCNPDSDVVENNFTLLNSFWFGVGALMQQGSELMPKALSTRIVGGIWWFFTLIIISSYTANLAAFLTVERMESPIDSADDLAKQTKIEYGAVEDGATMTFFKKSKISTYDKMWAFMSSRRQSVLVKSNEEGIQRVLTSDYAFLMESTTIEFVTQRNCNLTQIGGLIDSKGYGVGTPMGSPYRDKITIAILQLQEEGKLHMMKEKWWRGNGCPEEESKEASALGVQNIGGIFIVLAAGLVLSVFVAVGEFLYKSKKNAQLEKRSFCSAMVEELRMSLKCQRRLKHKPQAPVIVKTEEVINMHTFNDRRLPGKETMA
T3 sequence (P42264 32-919): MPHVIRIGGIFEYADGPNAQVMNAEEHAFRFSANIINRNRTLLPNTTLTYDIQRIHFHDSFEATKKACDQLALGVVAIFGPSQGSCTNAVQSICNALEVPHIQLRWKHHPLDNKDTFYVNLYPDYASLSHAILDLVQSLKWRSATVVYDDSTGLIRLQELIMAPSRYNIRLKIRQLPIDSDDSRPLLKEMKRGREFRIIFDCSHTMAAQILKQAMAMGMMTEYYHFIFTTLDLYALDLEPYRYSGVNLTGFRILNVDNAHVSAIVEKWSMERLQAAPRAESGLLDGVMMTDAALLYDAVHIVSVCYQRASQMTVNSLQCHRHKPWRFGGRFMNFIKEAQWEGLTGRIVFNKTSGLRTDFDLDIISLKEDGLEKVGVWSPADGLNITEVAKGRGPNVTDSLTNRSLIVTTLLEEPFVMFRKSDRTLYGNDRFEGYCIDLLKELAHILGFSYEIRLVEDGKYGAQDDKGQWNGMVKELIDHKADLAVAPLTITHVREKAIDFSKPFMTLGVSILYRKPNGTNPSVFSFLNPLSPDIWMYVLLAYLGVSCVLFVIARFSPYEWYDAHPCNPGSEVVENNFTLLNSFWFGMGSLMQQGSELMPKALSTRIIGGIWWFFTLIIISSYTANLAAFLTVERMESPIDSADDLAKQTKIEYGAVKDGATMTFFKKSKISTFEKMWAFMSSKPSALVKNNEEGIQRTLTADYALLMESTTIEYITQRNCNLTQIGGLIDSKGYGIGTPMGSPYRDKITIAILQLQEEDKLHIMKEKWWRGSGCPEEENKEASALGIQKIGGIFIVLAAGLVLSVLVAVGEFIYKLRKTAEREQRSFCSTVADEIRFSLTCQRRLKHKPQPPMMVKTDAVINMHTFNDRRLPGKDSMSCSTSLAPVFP
T1 sequence (P22756 with tags, fused parts or gaps isoform P22756-2): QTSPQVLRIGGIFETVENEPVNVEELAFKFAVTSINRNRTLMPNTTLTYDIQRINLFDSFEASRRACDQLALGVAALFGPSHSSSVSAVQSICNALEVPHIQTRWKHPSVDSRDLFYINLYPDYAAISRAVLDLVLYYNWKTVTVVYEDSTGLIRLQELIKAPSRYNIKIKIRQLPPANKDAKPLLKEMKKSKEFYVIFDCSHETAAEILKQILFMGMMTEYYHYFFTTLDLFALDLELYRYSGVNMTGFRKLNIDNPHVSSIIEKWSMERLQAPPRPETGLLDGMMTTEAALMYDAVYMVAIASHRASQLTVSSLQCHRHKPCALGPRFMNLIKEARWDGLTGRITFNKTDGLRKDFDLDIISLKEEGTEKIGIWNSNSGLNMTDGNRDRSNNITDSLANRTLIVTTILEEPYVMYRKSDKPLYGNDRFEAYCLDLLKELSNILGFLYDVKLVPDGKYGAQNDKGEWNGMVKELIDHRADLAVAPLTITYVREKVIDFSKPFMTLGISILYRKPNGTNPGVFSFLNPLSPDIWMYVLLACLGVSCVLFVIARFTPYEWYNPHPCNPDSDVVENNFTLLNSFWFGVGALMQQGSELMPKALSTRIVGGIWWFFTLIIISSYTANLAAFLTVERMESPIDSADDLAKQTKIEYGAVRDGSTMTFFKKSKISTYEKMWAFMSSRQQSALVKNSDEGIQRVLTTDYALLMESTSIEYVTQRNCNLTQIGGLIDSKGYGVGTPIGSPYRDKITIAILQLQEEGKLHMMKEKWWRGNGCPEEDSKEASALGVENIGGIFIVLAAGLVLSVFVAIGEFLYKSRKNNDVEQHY

Row | SMILES | Ki (GluR5 [1]; [3]) | Ki (GluR6; [4]) | Ki (GluR7; [5]) | Ki (KA2; [6]) | Ki (GluR5 [1]; Table 2, read-out: GluR5 binding affinity (displacement of [3H]kainate)) | agonist or antagonist at GluR5 (electrophysiology) (GluR5 [2]) | convulsive behavior (mice; high doses) | ED50, fold lower than that of 2,4-epi-neoDH (mice; i.c.v. injection, mice) | Ki (GluR5 [1]) | Ki (GluR6) | Ki (GluR7) | Ki (KA2)
1 | NC(CC1(C(=O)O)CC2OCC(O)C(O)C2O1)C(=O)O (stereo not drawn) [9-epi-neoDH, 9-epi-neodysiherbaine] | 0.296 µM | > 100 µM | > 100 µM | >100 µM |  |  |  |  |  |  |  | 
2 | NC(CC1(C(=O)O)CC2OCC(O)C(O)C2O1)C(=O)O (stereo not drawn) [8,9-epi-neoDH, 8,9-epi-neodysiherbaine] |  | > 100 µM | > 100 µM | >100 µM | 48 µM | GluR5 antagonist | fails to elicit convulsive behavior even at high doses |  |  |  |  | 
3 | N[C@@H](C[C@@]1(C(=O)O)CC2OCC(O)C(O)C2O1)C(=O)O (single isomer, unassigned) [4-epi-neoDH, 4-epi-neodysiherbaine] |  |  |  |  |  | GluR5/GluR6 antagonist |  | > 6 fold |  |  |  | 
4 | NC(CC1(C(=O)O)CC2OCC(O)C(O)C2O1)C(=O)O (stereo not drawn) [8-epi-neoDH, 8-epi-neodysiherbaine] | 0.034 µM | 22 µM |  | >100 µM |  | GluR5 agonist |  |  |  |  |  | 
5 | N[C@@H](C[C@]1(C(=O)O)C[C@H]2OC[C@@H](O)C[C@H]2O1)C(=O)O [8-deoxy-neoDH] |  |  |  |  |  | GluR5 agonists |  |  | 0.0011 µM | 76 µM | 21 µM | 36 µM
6 | N[C@@H](C[C@]1(C(=O)O)C[C@H]2OCC[C@@H](O)[C@H]2O1)C(=O)O [9-deoxy-neoDH] | 0.168 µM | > 100 µM | > 100 µM | > 100 µM |  | GluR5 agonists |  |  |  |  |  | 
